# From patent US20070197453A1, “Compositions and methods for treatment of disorders of protein aggregation” (priority 2006, published 2007)
# “Also recorded” adds a separate entry of the source.
# Columns and labels:
# TgCRND8 mice [1] = assay: Morris Water Maze spatial reference memory test; type: in vivo, mouse; conditions: for spatial memory / cognition compared to untreated TgCRND8 mice / spatial memory compared to non-Tg littermates: one month treatment from 5 months of age; for effect on non-Tg littermate performance: non-Tg littermates, one month treatment
# Protocol: (§1) Behavioural tests: Morris Water Maze testing was performed as previously described. After non-spatial pre-training, mice underwent place discrimination training for 5 days with 4-trials per day, followed by a cued visible platform to rule out general motivational, learning deficits and motor problems, and a probe trial to evaluate memory. […] Open field test for motor activity was preformed as described previously. Duration of walking, pausing and grooming were analyzed as indices of spontaneous locomotor activity. Sensorimotor function was examined with an Economex™ accelerating rotarod (Columbus Instruments, Columbus, Ohio), as described elsewhere. The rod was set to accelerate at a rate of 0.2 r.p.m./s, from an initial, constant speed of 5 r.p.m. Latency to fall was recorded in four daily trials, conducted at 30 min intervals. All mice were trained for seven days before testing. The test day performance score for each animal was obtained by summing its latency to fall over the four trials
# Behavioural tests: Behavioural analyses were performed using the Morris Water Maze test (13, 14). After pre-spatial training, mice underwent place discrimination training for 5 days with 4 trials per day, followed by a cued visible platform to rule out general motivational, learning deficits and motor problems. […] Open field test for motor activity was performed as described previously. Duration of walking, pausing, rearing and grooming were analyzed as indices of spontaneous locomotor activity.
# TgCRND8 mice [2] = assay: Synaptophysin quantification by western blotting (hippocampus); type: in vivo, mouse
# Protocol: Synaptophysin protein levels were determined in treated and control mice by western blotting. Sections were immunoblotted for synaptophysin with anti-synaptophysin IgG (1:40; Roche, Laval, PQ) or GAPDH IgG (1: 10,000; Biodesign International) as a loading control. Films were scanned before analyses using NIH Image analyses combined with densitometry. Synaptophysin values were normalized to the loading control for each sample. Statistical analyses were determined using factorial ANOVA with Fishers PLSD as a post-hoc test.
# TgCRND8 mice [3] = assay: Survival census (Kaplan-Meier); type: in vivo, mouse
# Protocol: Survival Census: The probability of survival was assessed by the Kaplan-Meier technique, computing the probability of survival at every occurrence of death, thus making it suitable for small sample sizes. For the analyses of survival, 35 mice were used for each treatment group. The Tarone-Ware test was used to assess effects of treatments.
# Survival Census: The probability of survival was assessed by the Kaplan-Meier technique computing the probability of survival at every occurrence of death, thus making it suitable for small sample sizes. For the analyses of survival, 30 mice were used for each treatment group. The Tarone-Ware test was used to assess effects of treatments.
# TgCRND8 mice [4] = assay: Open field test for motor activity; type: in vivo, mouse; conditions: TgCRND8 mice and non-Tg littermates; drinking water 10 mg/ml, extended treatment
# Protocol: as §1
# (§2) Behavioural tests: Behavioural analyses were performed using the Morris Water Maze test (13, 14). […] Duration of walking, pausing, rearing and grooming were analyzed as indices of spontaneous locomotor activity.
# TgCRND8 mice [5] = assay: Cued visible platform test (Morris Water Maze); type: in vivo, mouse; conditions: one month treatment from 5 months of age
# Protocol: as §1, §2
# [6] = Hematology and serum biochemical analyses; type: in vivo, mouse
# From the text: Blood was collected prior to sacrifice and samples were sent to VITA-TECH laboratories (Markham, ON, Canada) for analyses. Reference values were obtained from Zhou and Hansson.
# [7] = mouse, in vivo
# Protocol: Mice. […] This initial dosage was chosen based upon the dosage of myo-cyclohexanehexol (6-18 grams/day/adult or 86-257 mg/Kg/day) that is typically administered to human patients for various psychiatric disorders. […] A cohort of animals (n=10 mice per treatment arm) entered the study at five months of age, and outcomes were then analyzed after one month of treatment. The body weight, coat characteristics and in cage behaviour were monitored. Mannitol was used as a negative control for potential alterations in caloric intake. All experiments were performed according to the Canadian Council on Animal Care guidelines.
# Mice. […] Cohorts of animals entered the study at 5 months of age and outcomes were analyzed after one month. Alternatively, cohorts of animals entered the prophylactic study at 6 weeks of age and outcome measures were analysed at 6-months of age. The body weight, coat characteristics and in cage behaviour was monitored. All experiments were performed according to the Canadian Council on Animal Care guidelines.
# [8] = drinking water 10 mg/ml, listed as Epi-2-inosose
# [9] = drinking water 10 mg/ml, prophylactic from 6 weeks until six months of age
substance,measurement,setting,value
epi-2-inosose,spatial memory / cognition compared to untreated TgCRND8 mice,TgCRND8 mice [1]; drinking water 10 mg/ml,significantly better than untreated TgCRND8 littermates
same,spatial memory compared to non-Tg littermates,TgCRND8 mice [1]; drinking water 10 mg/ml,not significantly different from non-Tg littermates
same,spatial memory / cognition compared to untreated TgCRND8 mice,TgCRND8 mice [1]; [8],significantly improved cognition
same,spatial memory compared to non-Tg littermates,TgCRND8 mice [1]; [8],not significantly different from treated nTg littermates
same,spatial learning compared to non-Tg littermates,TgCRND8 mice [1]; [9],approached that of non-Tg littermates
same,spatial learning compared to untreated TgCRND8 littermates,TgCRND8 mice [1]; [9],better cognitive function compared to their untreated TgCRND8 littermates
same,spatial learning compared to non-Tg littermates,"TgCRND8 mice [1]; drinking water 10 mg/ml, prophylactic from 6 weeks until six months of age, listed as Epi-2-inosose",different from non-Tg littermates on all days of testing
same,effect on non-Tg littermate performance,TgCRND8 mice [1]; drinking water 10 mg/ml,no effect on non-Tg littermate performance
same,effect on non-Tg littermate performance,TgCRND8 mice [1]; [8],no effect on non-Tg littermate behaviour
same,effect on cognitive performance of non-Tg mice,"TgCRND8 mice [1]; non-Tg mice, prophylactic administration",no effect on the cognitive performance of non-Tg mice
same,Synaptophysin reactivity / levels,TgCRND8 mice [2]; 6 month prophylactic and treatment paradigms,significantly increased
same,increase in synaptophysin reactivity in the hippocampus,TgCRND8 mice [2]; delayed treatment study,15%
same,increase in synaptophysin reactivity in the hippocampus,TgCRND8 mice [2]; prophylactic study,33%
same,Kaplan Meier cumulative survival,"TgCRND8 mice [3]; drinking water 10 mg/ml, compared to untreated TgCRND8 mice",increased survival
same,improvement of survival,"TgCRND8 mice [3]; prophylactic treatment to six months of age, vs untreated",50%
same,"open field test: rearing, grooming, walking, pausing (activity levels)",TgCRND8 mice [4],indistinguishable; also recorded: does not affect activity levels
same,Visual acuity (cued version of the Morris Water Maze test),TgCRND8 mice [5],not altered by treatment
same,serum biochemistry: organ function,[6]; Tg and non-Tg mice treated,"normal kidney, heart, liver and pancreas function"
same,ALP,"[6]; serum, Treated TgCRND8",73 ± 5 U/L
same,ALT,"[6]; serum, Treated TgCRND8",30 ± 3 U/L
same,Albumin,"[6]; serum, Treated TgCRND8",32 ± 2 g/L
same,Bilirubin,"[6]; serum, Treated TgCRND8",1.8 ± 0.15 µmol/L
same,Creatine,"[6]; serum, Treated TgCRND8",15.9 ± 2 µmol/L
same,Globulin,"[6]; serum, Treated TgCRND8",18 ± 2 g/L
same,Glucose,"[6]; serum, Treated TgCRND8",12 ± 0.6 mmol/L
same,Total Protein,"[6]; serum, Treated TgCRND8",49 ± 0.7 g/L
same,Urea,"[6]; serum, Treated TgCRND8",8.6 ± 0.4 mmol/L
same,"survival, weight, fur condition, cage behaviour",[7],"no effect on survival, weight, fur condition, or cage behaviour of wild type mice"
